Structures are written as SMILES. ≈ marks a conversion by molar mass, not a printed value.

Data set [1] can be described thus: Selectivity index, ratio of Ki for displacement of [3H]quinuclidinyl benzilate from Wistar rat cortex muscarinic AChR to Ki for N-alpha-[methyl-3H]-methylhistamine dihydrochloride from Sprague-Dawley rat brain membrane histamine H3 receptor.
A short description of data set [2]: Volume of distribution in Wistar rat at 3 mg/kg, po or iv measured upto 5 hrs by HPLC-MS/MS analysis. The format is ADME, organism-based. Conditions: in vivo.
A short description of data set [3]: Apparent permeability in vinblastine treated human CaCo-2 cells. Type of data set: ADME, cell-based. On the technique in general: Passage across Caco-2 layers is used to estimate intestinal permeability.
For data set [4], the target named is T1, Histamine H3 receptor (Homo sapiens, UniProt Q9Y5N1). The data set is described as follows: Antagonist activity at human histamine H3 receptor expressed in CHO-K1 cells assessed as inhibition of imetit-stimulation ERK1/2 phosphorylation by ELISA analysis. The format is cell-based. For orientation: In an ELISA, binding on a coated surface is turned into a signal by an enzyme label.
T1 sequence (Q9Y5N1 whole entry): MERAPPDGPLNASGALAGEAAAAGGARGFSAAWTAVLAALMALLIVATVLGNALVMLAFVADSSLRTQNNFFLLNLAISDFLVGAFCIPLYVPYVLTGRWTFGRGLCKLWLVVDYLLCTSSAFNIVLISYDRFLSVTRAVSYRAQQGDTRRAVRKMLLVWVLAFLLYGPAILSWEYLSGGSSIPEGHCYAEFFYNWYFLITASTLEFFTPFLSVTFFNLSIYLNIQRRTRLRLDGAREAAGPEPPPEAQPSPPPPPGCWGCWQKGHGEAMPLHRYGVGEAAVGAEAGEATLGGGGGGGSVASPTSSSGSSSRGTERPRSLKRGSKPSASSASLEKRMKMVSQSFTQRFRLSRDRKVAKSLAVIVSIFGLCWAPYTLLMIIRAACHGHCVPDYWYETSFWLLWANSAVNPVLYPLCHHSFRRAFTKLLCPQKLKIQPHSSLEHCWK

Data set [5] has as its target Histamine H3 receptor (Rattus norvegicus, UniProt Q9QYN8). The data set is described as follows: Displacement of N-alpha-[methyl-3H]-methylhistamine dihydrochloride from Sprague-Dawley rat brain membrane histamine H3 receptor assessed as inhibition constant incubated for 30 mins by liquid scintillation counting analysis. The format is cell membranes.
Data set [6] deals with T1, Histamine H3 receptor. The data set can be described thus: Inverse agonist activity at recombinant human histamine H3 receptor expressed in CHO-K1 cells preincubated for 10 mins followed by [35S]GTPgammaS addition and measured after 60 mins by TopCount NXT based scintillation analysis. Type of data set: cell-based.
A short description of data set [7]: Stability in rat microsomes. The format is ADME, Microsome.
Data set [8] in a line: Ratio AUC in Wistar rat brain to plasma at 3 mg/kg, po or iv measured upto 5 hrs by HPLC-MS/MS analysis. The format is ADME, organism-based. As to conditions: brain and plasma, read-out: Ratio AUC.
Data set [9] in a line: Stability in human microsomes. Type of data set: ADME, Microsome.
Data set [10] can be described thus: Terminal half-life in Wistar rat plasma at 3 mg/kg, po or iv measured upto 5 hrs by HPLC-MS/MS analysis. Type of data set: ADME, organism-based. As to conditions: read-out: beta t1/2 (converted).
A short description of data set [11]: Displacement of [3H]quinuclidinyl benzilate from Wistar rat cortex muscarinic AChR assessed as inhibition constant by liquid scintillation counting analysis. Type of data set: tissue-based. A general note: Loss of bound radioactivity is the signal in a displacement assay; it reports binding, not function.
A short description of data set [12]: Tmax in Wistar rat at 3 mg/kg, po or iv measured upto 5 hrs by HPLC-MS/MS analysis. Type of data set: ADME, organism-based. As to conditions: in vivo.
Data set [13] addresses T1, Histamine H3 receptor. The data set is described as follows: Inverse agonist activity at recombinant human histamine H3 receptor expressed in CHO-K1 cells assessed as maximal efficacy preincubated for 10 mins followed by [35S]GTPgammaS addition and measured after 60 mins by TopCount NXT based scintillation analysis relative to control. The format is cell-based. As to conditions: time 70.0 min.

The subject of data set [14] is Rattus norvegicus. The data set is described as follows: Anti-dipsogenic activity in imetit-induced Wistar rat model assessed as inhibition of imetit-induced water intake at 10 mg/kg, po preadministered for 30 mins followed by imetit stimulation and measured after 40 mins relative to control. Type of data set: functional. Conditions: 1.167 h, time 70 min.
Data set [15] in a line: Terminal half-life in Wistar rat brain at 3 mg/kg, po or iv measured upto 5 hrs by HPLC-MS/MS analysis. The format is ADME, organism-based. As to conditions: read-out: beta t1/2 (converted).
Data set [16] can be described thus: Thermodynamic […] of the compound measured after 24 hrs by HPLC-UV-MS analysis. Type of data set: physicochemical. As to conditions: read-out: Therm_solubility.
Data set [17] can be described thus: Bioavailability in Wistar rat at 3 mg/kg, po or iv measured upto 5 hrs by HPLC-MS/MS analysis. Type of data set: ADME, organism-based. As to conditions: in vivo.
The species entered for data set [18] is Rattus norvegicus. The data set can be described thus: Displacement of [3H]quinuclidinyl benzilate from Wistar rat cortex muscarinic AChR at 3 uM by liquid scintillation counting analysis relative to control. Type of data set: tissue-based.
Data set [19] deals with T1, Histamine H3 receptor. The data set is described as follows: Displacement of N-alpha-[methyl-3H]-methylhistamine dihydrochloride from recombinant human histamine H3 receptor expressed in CHO-K1 cells assessed as inhibition constant incubated for 30 mins by liquid scintillation analysis. Type of data set: cell-based.

Sequence of Histamine H3 receptor (Rattus norvegicus, UniProt Q9QYN8) (Q9QYN8 whole entry): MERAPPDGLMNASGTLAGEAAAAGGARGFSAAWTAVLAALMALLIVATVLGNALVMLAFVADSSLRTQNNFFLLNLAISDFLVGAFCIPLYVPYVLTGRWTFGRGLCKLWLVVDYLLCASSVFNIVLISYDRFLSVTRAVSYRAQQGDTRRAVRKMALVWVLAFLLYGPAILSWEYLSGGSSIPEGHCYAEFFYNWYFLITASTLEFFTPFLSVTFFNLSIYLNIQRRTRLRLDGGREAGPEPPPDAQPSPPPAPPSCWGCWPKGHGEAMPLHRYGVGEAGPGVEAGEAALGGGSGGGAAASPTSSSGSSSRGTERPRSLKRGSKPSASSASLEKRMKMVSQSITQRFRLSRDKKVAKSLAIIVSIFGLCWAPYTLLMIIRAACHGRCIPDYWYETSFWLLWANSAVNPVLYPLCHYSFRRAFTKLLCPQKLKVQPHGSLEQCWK

With `C[C@]12CC[C@@H]3c4ccc(OCc5ccccn5)cc4CC[C@H]3[C@@H]1CC[C@@H]2N1CCCC1`, the Ratio Ki in [1] was found to be 141. In data set [2], the Vd is 19.7 L/kg. Moreover, the apparent permeability (Papp) (commonly the rate of passage across a membrane or cell layer, normalised by area and donor concentration) in data set [3] was 10.1 ×10⁻⁶ cm/s. Further, the IC50 (in general, the point on the concentration scale where inhibition reaches its midpoint) at Histamine H3 receptor [4] was found to be 50.8 nM. Also, the Ki (usually the equilibrium dissociation constant of an inhibitor or competing ligand from its target) on Histamine H3 receptor [5] turned out to be 7.6 nM; in data set [11] it was 1080 nM; at Histamine H3 receptor [19], 2.2 nM. For the same molecule, the EC50 (in general, the concentration needed to bring the measured effect to its halfway point) at Histamine H3 receptor [6] amounted to 1 nM. Further, the Stability in data set [7] is reported as 67%; in data set [9], 93%. For the same molecule, in [8], the Kp at 5 h came out at 41.1. Also, the half-life in data set [10] and in data set [15] was 1.5 h throughout. The time of peak concentration (Tmax) (as a rule, the time at which the peak concentration occurs) in [12] was found to be 1 h. Besides, the maximal effect (Emax) (in general, the size of the effect at its maximum, as opposed to the concentration needed) on Histamine H3 receptor [13] came to 23%. In addition, the inhibition in vivo (commonly the change of the read-out against control, counted positive when it falls) at 10 mg/kg in the data set with Rattus norvegicus [14] came to 122%. In data set [16], the solubility thermodynamic at 24 h was 93 µM (≈ 38.7 µg/mL). In addition, the bioavailability (in general, dose-corrected exposure relative to a reference, in per cent) in data set [17] turned out to be 25.4%. This molecule also registered an Activity in the data set filed under Rattus norvegicus [18] of 51%.

The record behind these values is ChEMBL document CHEMBL5260820, “Discovery of novel steroidal histamine H3 receptor antagonists/inverse agonists” (Bioorg Med Chem Lett, 2017).
